What was measured:
Test in all cases: KINOMEscan binding
Conditions in all cases: read-out: Percent Control
[1] = molecular target: T1, CAMK1 (Homo sapiens, UniProt Q14012)
T1 construct: purchased Eurofins DiscoverX KINOMEscan

[2] = molecular target: T2, PIK4CB (Homo sapiens, UniProt Q9UBF8)
T2 construct: purchased Eurofins DiscoverX KINOMEscan

[3] = molecular target: T3, ACVR1 (Homo sapiens, UniProt Q04771)
T3 construct: purchased Eurofins DiscoverX KINOMEscan

[4] = molecular target: T4, HIPK4 (Homo sapiens, UniProt Q8NE63)
T4 construct: purchased Eurofins DiscoverX KINOMEscan
T4 sequence (Q8NE63 whole entry): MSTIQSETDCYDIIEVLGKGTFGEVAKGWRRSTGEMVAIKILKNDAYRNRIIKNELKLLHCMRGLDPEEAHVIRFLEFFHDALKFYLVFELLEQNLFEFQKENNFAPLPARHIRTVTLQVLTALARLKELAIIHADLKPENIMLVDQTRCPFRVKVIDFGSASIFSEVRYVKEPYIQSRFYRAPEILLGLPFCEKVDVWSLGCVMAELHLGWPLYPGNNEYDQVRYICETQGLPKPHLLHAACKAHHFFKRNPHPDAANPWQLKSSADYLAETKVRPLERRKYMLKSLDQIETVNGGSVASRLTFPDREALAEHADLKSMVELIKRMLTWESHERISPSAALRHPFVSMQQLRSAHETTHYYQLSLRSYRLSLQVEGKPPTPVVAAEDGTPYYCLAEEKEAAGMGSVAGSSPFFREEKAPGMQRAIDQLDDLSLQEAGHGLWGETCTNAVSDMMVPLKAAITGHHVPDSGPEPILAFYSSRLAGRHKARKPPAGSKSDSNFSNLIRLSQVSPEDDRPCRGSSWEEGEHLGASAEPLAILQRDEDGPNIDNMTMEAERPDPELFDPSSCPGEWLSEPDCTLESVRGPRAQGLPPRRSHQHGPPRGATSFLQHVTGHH

[5] = molecular target: T5, ITK (Homo sapiens, UniProt Q08881)
T5 construct: purchased Eurofins DiscoverX KINOMEscan

[6] = molecular target: T6, TNK1 (Homo sapiens, UniProt Q13470)
T6 construct: purchased Eurofins DiscoverX KINOMEscan
T6 sequence (Q13470 whole entry): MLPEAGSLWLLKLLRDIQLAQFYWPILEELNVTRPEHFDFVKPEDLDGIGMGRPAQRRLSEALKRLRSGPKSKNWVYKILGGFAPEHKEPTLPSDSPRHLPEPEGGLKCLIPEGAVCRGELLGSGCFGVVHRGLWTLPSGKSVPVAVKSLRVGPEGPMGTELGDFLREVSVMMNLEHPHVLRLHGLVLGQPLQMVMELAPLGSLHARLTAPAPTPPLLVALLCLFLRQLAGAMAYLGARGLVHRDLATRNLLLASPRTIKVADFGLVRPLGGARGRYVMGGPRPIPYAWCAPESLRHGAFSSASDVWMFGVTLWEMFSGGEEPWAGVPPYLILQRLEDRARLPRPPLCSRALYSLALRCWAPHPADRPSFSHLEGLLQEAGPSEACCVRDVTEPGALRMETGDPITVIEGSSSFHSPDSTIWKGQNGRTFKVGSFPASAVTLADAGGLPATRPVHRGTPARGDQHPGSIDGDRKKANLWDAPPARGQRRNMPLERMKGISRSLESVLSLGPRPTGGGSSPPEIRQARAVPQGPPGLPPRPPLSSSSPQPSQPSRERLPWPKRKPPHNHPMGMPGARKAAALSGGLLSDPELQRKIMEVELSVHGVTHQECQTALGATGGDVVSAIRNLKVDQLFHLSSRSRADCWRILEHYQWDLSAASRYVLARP

[7] = molecular target: T7, EPHB2 (Homo sapiens, UniProt P29323)
T7 construct: purchased Eurofins DiscoverX KINOMEscan

[8] = molecular target: T8, INSRR (Homo sapiens, UniProt P14616)
T8 construct: purchased Eurofins DiscoverX KINOMEscan

[9] = molecular target: T9, RIPK4 (Homo sapiens, UniProt P57078)
T9 construct: purchased Eurofins DiscoverX KINOMEscan

[10] = molecular target: T10, PIK3CA(E542K) (Homo sapiens, UniProt P42336, E542K)
T10 construct: purchased Eurofins DiscoverX KINOMEscan

[11] = molecular target: T11, EPHA4 (Homo sapiens, UniProt P54764)
T11 construct: purchased Eurofins DiscoverX KINOMEscan

[12] = molecular target: T12, CSNK2A2 (Homo sapiens, UniProt P19784)
T12 construct: purchased Eurofins DiscoverX KINOMEscan

[13] = molecular target: T13, KIT(V559D) (Homo sapiens, UniProt P10721, V559D)
T13 construct: purchased Eurofins DiscoverX KINOMEscan

[14] = molecular target: T14, MST4 (Homo sapiens, UniProt Q9P289)
T14 construct: purchased Eurofins DiscoverX KINOMEscan
T14 sequence (Q9P289 whole entry): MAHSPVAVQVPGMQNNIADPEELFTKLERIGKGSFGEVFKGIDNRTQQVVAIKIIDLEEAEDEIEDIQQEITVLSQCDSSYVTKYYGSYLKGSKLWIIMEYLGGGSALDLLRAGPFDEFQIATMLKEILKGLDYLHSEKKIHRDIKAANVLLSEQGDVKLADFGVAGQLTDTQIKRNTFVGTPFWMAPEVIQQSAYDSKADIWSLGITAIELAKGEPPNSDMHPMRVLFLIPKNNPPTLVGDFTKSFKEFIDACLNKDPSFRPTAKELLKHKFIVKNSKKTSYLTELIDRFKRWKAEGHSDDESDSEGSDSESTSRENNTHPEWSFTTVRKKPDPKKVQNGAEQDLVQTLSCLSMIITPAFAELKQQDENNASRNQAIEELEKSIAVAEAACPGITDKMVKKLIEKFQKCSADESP

[15] = molecular target: T15, PHKG2 (Homo sapiens, UniProt P15735)
T15 construct: purchased Eurofins DiscoverX KINOMEscan

[16] = molecular target: T16, MARK2 (Homo sapiens, UniProt Q7KZI7)
T16 construct: purchased Eurofins DiscoverX KINOMEscan

[17] = molecular target: T17, ANKK1 (Homo sapiens, UniProt Q8NFD2)
T17 construct: purchased Eurofins DiscoverX KINOMEscan

[18] = molecular target: T18, PRKG1 (Homo sapiens, UniProt Q13976)
T18 construct: purchased Eurofins DiscoverX KINOMEscan

[19] = molecular target: T19, RPS6KA4(Kin.Dom.2-C-terminal) (Homo sapiens, UniProt O75676)
T19 construct: RPS6KA4(Kin.Dom.2-C-terminal); purchased Eurofins DiscoverX KINOMEscan

[20] = molecular target: T20, MLCK (Homo sapiens, UniProt Q32MK0)
T20 construct: purchased Eurofins DiscoverX KINOMEscan

[21] = molecular target: T21, PRKD2 (Homo sapiens, UniProt Q9BZL6)
T21 construct: purchased Eurofins DiscoverX KINOMEscan

[22] = molecular target: T22, FLT1 (Homo sapiens, UniProt P17948)
T22 construct: purchased Eurofins DiscoverX KINOMEscan

[23] = molecular target: T23, MERTK (Homo sapiens, UniProt Q12866)
T23 construct: purchased Eurofins DiscoverX KINOMEscan

[24] = molecular target: T24, FLT3(N841I) (Homo sapiens, UniProt P36888, N841I)
T24 construct: purchased Eurofins DiscoverX KINOMEscan

[25] = molecular target: T25, TRKC (Homo sapiens, UniProt Q16288)
T25 construct: purchased Eurofins DiscoverX KINOMEscan
T25 sequence (Q16288 32-839): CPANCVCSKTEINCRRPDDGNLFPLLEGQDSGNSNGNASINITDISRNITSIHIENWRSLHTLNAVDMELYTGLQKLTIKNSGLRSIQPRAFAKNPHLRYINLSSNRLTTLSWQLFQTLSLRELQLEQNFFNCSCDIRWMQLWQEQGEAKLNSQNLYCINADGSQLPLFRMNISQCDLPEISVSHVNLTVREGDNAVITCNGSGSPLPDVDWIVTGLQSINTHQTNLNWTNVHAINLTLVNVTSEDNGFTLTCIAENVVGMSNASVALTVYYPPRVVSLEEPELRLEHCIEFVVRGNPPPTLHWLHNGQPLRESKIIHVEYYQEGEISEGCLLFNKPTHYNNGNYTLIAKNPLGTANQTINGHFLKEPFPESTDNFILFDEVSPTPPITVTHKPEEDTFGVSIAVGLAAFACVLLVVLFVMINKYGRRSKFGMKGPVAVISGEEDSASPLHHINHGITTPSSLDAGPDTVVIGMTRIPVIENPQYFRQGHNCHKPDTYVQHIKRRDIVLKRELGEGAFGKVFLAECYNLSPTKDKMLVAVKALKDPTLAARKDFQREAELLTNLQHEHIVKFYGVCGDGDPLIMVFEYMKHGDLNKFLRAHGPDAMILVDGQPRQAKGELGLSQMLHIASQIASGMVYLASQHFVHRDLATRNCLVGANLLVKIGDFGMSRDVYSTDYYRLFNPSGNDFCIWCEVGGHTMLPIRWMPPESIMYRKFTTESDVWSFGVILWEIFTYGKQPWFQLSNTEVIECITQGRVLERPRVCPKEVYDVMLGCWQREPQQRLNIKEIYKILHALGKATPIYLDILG

[26] = molecular target: T26, TEC (Homo sapiens, UniProt P42680)
T26 construct: purchased Eurofins DiscoverX KINOMEscan
T26 sequence (P42680 whole entry): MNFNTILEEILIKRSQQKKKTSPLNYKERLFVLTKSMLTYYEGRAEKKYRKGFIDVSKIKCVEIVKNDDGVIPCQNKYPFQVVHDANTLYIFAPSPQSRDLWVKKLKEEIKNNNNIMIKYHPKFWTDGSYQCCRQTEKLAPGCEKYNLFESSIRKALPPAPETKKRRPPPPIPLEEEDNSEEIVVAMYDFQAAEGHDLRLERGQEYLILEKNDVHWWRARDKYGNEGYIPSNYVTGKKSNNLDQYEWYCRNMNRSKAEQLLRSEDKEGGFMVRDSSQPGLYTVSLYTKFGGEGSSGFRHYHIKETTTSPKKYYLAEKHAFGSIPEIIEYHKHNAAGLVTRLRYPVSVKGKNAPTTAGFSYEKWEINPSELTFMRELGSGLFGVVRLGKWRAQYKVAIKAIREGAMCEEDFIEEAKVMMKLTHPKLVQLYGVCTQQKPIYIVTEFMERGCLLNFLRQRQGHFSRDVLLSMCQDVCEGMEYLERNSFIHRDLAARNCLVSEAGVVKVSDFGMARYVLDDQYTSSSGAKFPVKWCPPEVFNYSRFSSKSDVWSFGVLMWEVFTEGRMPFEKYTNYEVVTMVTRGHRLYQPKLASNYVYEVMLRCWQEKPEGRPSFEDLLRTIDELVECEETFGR

[27] = molecular target: T27, CDC2L2 (Homo sapiens, UniProt Q9UQ88)
T27 construct: purchased Eurofins DiscoverX KINOMEscan
T27 sequence (Q9UQ88 whole entry): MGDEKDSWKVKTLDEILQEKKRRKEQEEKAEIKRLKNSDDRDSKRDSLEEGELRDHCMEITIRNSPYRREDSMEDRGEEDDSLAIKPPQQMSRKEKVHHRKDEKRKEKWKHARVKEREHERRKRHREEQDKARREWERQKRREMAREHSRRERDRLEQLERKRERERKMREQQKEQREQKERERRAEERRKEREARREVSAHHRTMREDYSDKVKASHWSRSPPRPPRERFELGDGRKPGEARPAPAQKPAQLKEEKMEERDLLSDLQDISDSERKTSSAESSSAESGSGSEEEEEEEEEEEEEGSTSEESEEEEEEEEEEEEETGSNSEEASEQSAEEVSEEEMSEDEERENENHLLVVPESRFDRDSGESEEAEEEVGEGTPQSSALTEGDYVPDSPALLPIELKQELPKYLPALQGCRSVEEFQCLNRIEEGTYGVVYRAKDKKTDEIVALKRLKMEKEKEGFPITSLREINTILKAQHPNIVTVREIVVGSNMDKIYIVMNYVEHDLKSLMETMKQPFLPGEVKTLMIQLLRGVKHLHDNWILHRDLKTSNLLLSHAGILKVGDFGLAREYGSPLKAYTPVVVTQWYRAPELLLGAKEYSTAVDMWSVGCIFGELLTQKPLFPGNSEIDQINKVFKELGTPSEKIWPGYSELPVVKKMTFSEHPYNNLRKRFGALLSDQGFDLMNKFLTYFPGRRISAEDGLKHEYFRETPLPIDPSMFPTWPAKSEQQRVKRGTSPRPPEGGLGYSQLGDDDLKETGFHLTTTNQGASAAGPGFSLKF

[28] = molecular target: T28, CLK1 (Homo sapiens, UniProt P49759)
T28 construct: purchased Eurofins DiscoverX KINOMEscan
T28 sequence (P49759 whole entry): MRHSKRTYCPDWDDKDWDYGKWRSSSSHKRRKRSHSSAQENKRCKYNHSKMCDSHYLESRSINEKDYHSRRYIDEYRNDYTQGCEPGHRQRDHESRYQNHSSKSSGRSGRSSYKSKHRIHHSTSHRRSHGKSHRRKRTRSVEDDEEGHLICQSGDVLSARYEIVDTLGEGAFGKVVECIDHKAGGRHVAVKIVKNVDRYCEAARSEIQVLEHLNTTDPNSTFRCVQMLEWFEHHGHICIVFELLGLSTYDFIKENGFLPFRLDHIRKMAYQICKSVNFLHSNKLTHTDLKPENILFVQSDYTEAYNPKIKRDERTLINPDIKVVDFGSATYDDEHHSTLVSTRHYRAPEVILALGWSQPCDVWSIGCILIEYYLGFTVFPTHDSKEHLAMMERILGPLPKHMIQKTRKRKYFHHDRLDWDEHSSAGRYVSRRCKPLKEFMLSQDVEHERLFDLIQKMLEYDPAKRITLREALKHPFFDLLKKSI

[29] = molecular target: T29, CHEK2 (Homo sapiens, UniProt O96017)
T29 construct: purchased Eurofins DiscoverX KINOMEscan

[30] = molecular target: T30, ERK1 (Homo sapiens, UniProt P27361)
T30 construct: purchased Eurofins DiscoverX KINOMEscan

[31] = molecular target: T31, DRAK1 (Homo sapiens, UniProt Q9UEE5)
T31 construct: purchased Eurofins DiscoverX KINOMEscan

[32] = molecular target: T32, IKK-beta (Homo sapiens, UniProt O14920)
T32 construct: purchased Eurofins DiscoverX KINOMEscan

[33] = molecular target: T33, PIK3CD (Homo sapiens, UniProt O00329)
T33 construct: purchased Eurofins DiscoverX KINOMEscan

[34] = molecular target: T34, AURKC (Homo sapiens, UniProt Q9UQB9)
T34 construct: purchased Eurofins DiscoverX KINOMEscan

[35] = molecular target: T35, TYK2(JH1domain-catalytic) (Homo sapiens, UniProt P29597)
T35 construct: TYK2(JH1domain-catalytic); purchased Eurofins DiscoverX KINOMEscan

[36] = molecular target: T36, YANK3 (Homo sapiens, UniProt Q86UX6)
T36 construct: purchased Eurofins DiscoverX KINOMEscan

[37] = molecular target: T37, TLK1 (Homo sapiens, UniProt Q9UKI8)
T37 construct: purchased Eurofins DiscoverX KINOMEscan

[38] = molecular target: T38, ASK1 (Homo sapiens, UniProt Q99683)
T38 construct: purchased Eurofins DiscoverX KINOMEscan

[39] = molecular target: T39, TNK2 (Homo sapiens, UniProt Q07912)
T39 construct: purchased Eurofins DiscoverX KINOMEscan

[40] = molecular target: T40, SNRK (Homo sapiens, UniProt Q9NRH2)
T40 construct: purchased Eurofins DiscoverX KINOMEscan

[41] = molecular target: T41, PDGFRA (Homo sapiens, UniProt P16234)
T41 construct: purchased Eurofins DiscoverX KINOMEscan

[42] = molecular target: T42, MKNK1 (Homo sapiens, UniProt Q9BUB5)
T42 construct: purchased Eurofins DiscoverX KINOMEscan

[43] = molecular target: T43, HIPK2 (Homo sapiens, UniProt Q9H2X6)
T43 construct: purchased Eurofins DiscoverX KINOMEscan

[44] = molecular target: T44, MLK2 (Homo sapiens, UniProt Q02779)
T44 construct: purchased Eurofins DiscoverX KINOMEscan

T3 sequence (Q04771 21-509): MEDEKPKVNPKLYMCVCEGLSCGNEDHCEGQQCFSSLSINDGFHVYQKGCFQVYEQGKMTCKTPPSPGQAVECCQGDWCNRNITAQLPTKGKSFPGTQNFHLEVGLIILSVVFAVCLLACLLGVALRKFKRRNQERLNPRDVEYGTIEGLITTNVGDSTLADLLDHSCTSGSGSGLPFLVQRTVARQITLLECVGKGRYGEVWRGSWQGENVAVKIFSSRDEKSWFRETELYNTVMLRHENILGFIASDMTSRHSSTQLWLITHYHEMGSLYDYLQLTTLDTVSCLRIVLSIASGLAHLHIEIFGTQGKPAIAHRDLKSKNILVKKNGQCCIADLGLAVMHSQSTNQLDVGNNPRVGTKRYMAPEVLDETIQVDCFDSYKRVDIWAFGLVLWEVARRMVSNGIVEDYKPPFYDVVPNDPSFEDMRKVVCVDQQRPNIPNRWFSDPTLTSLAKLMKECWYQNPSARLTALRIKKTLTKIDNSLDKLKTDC

CC(C)NC(=O)COc1cccc(-c2nc(Nc3ccc4[nH]ncc4c3)c3ccccc3n2)c1 [KD025, 2-(3-(4-((1H-indazol-5-yl)amino)quinazolin-2-yl)phenoxy)-N-isopropylacetamide]
remaining binding at 10 µM [1]: 100% | remaining binding at 10 µM [2]: 92% | remaining binding at 10 µM [3]: 32% | remaining binding at 10 µM [4]: 69% | remaining binding at 10 µM [5]: 92% | remaining binding at 10 µM [6]: 88% | remaining binding at 10 µM [7]: 96% | remaining binding at 10 µM [8]: 83% | remaining binding at 10 µM [9]: 100% | remaining binding at 10 µM [10]: 78% | remaining binding at 10 µM [11]: 93% | remaining binding at 10 µM [12]: 0.5% | remaining binding at 10 µM [13]: 72% | remaining binding at 10 µM [14]: 88% | remaining binding at 10 µM [15]: 100% | remaining binding at 10 µM [16]: 71% | remaining binding at 10 µM [17]: 72% | remaining binding at 10 µM [18]: 100% | remaining binding at 10 µM [19]: 91% | remaining binding at 10 µM [20]: 100% | remaining binding at 10 µM [21]: 100% | remaining binding at 10 µM [22]: 95% | remaining binding at 10 µM [23]: 58% | remaining binding at 10 µM [24]: 19% | remaining binding at 10 µM [25]: 100% | remaining binding at 10 µM [26]: 95% | remaining binding at 10 µM [27]: 80% | remaining binding at 10 µM [28]: 57% | remaining binding at 10 µM [29]: 99% | remaining binding at 10 µM [30]: 63% | remaining binding at 10 µM [31]: 39% | remaining binding at 10 µM [32]: 100% | remaining binding at 10 µM [33]: 41% | remaining binding at 10 µM [34]: 18% | remaining binding at 10 µM [35]: 95% | remaining binding at 10 µM [36]: 76% | remaining binding at 10 µM [37]: 100% | remaining binding at 10 µM [38]: 100% | remaining binding at 10 µM [39]: 82% | remaining binding at 10 µM [40]: 14% | remaining binding at 10 µM [41]: 80% | remaining binding at 10 µM [42]: 68% | remaining binding at 10 µM [43]: 100% | remaining binding at 10 µM [44]: 100%
